Test results from publication PMC8595762 (Plant Direct, 2021).

What was measured:
ABCB4 = target: T1, ABCB4 (Arabidopsis thaliana, UniProt O80725); experiment: whole-cell patch clamp, current magnitude; assay type: cell-based; conditions: activation; IAA in pipette (cytoplasmic side); 50 mM CsCl
T1 sequence (O80725 1-1286): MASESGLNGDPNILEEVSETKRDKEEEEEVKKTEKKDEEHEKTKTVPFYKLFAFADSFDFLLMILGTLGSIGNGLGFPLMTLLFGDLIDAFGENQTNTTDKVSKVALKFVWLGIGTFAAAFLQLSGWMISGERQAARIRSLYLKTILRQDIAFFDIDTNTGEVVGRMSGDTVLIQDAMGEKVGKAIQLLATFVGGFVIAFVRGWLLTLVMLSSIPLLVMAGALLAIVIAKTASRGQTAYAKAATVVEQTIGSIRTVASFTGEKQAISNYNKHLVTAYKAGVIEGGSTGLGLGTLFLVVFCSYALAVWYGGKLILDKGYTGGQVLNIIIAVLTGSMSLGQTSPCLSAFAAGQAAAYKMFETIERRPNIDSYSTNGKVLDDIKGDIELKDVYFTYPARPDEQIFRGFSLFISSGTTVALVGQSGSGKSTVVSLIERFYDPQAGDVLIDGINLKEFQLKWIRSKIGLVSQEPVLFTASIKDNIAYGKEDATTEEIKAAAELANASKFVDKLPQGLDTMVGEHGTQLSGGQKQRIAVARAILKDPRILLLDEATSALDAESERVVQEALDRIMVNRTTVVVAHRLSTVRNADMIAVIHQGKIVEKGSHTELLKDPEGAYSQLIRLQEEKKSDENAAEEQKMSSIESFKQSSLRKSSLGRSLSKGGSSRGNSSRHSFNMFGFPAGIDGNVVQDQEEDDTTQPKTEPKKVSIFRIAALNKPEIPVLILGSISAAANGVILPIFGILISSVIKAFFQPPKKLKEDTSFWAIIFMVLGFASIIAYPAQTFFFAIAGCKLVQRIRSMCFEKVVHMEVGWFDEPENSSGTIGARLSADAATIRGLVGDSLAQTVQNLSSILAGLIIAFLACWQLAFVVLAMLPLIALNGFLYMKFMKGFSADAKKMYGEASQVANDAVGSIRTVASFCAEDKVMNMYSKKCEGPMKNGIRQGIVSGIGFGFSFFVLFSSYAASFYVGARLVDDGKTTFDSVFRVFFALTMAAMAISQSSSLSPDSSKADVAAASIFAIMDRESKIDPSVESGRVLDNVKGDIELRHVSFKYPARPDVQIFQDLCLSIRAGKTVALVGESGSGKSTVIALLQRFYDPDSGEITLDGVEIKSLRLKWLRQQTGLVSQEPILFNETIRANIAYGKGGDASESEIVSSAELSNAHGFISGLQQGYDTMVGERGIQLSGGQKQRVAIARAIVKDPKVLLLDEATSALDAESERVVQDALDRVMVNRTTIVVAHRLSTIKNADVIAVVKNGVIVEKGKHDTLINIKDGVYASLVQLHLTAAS

PIN2 = target: T2, PIN2 (Arabidopsis thaliana, UniProt Q9LU77); experiment: whole-cell patch clamp, block of currents; assay type: cell-based; conditions: inhibition; NPPB in bath; auxin-stimulated conditions; 50 mM CsCl
T2 sequence (Q9LU77 1-647): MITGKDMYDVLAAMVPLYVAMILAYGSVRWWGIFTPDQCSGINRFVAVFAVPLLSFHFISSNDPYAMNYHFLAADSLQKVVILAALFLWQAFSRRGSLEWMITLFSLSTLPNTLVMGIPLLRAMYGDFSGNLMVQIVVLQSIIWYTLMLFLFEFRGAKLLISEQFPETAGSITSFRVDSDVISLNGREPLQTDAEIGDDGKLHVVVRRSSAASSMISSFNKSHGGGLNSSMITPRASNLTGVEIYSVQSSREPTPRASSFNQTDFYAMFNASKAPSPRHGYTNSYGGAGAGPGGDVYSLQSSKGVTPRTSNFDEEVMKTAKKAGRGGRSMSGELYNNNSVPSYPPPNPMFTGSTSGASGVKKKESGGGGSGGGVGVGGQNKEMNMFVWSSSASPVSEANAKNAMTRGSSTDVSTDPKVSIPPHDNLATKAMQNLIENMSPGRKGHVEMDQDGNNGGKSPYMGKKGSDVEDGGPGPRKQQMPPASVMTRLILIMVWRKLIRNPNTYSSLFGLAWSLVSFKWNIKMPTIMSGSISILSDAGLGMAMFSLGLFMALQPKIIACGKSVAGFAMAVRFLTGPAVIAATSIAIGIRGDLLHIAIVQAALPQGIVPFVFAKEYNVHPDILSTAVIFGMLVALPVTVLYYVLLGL

| % increase in currents, 0.1 to 1 μM IAA (ABCB4) | Compound | block at 20 μM (PIN2) |
| --- | --- | --- |
| ~ 30% | O=C(O)Cc1c[nH]c2ccccc12 [IAA^−] | – |
| – | O=C(O)c1cc([N+](=O)[O-])ccc1NCCCc1ccccc1 [NPPB, 5‐nitro‐2‐(3‐phenylpropylamine)‐benzoic acid] | NPPB but not NPA was an effective inhibitor |
